The text below walks through data of patent US4713453A, “Oxabicycloheptane derivatives” (Suntori Limited, priority 1986, dated 1987).

In brackets after ≈: the same amount, converted by molar mass. Entries after “also recorded” stand apart in the source; their conditions may differ. Where two headings read alike, the source gives them in different places.

Test [1] relates to ECS-induced amnesia in mice. As to the kind of experiment: Effect on electroconvulsive shock (ECS)-induced amnesia in mice, step-through passive avoidance. The format is in vivo, mouse (male ddY). The following applies: 6.25 and 12.5 mg/kg, intraperitoneal, 30 minutes before retention test. On the procedure:
(§1) 6b. Effects on electroconvulsive shock (ECS)- and cycloheximide-induced amnesia in mice
(§2) Male, ddY strain mice, weighing 25 to 35 g, were used. Memory retention deficit induced by ECS and cycloheximide was evaluated by two-compartment step-through passive avoidance task using a light-dark apparatus. Passive avoidance training test began by placing the mouse into the light compartment. When the mouse moved completely into the dark compartment, a shock of 0.6 mA was applied from the grid floor. Amnesia was induced in the following two ways. In the first one, a single ECS (current 50 mA, frequency 50 Hz, pulse width 1 msec, shock duration 1 msec) was applied via a pair of electrodes attached to the head immediately after receiving the foot shock, and the mouse was returned to its home cage. Test compounds were administered intraperitoneally 30 minutes before a retention test. In the second one, cycloheximide (40 mg/kg) was administered subcutaneously 30 minutes before the training and the compounds in question were administered intraperitoneally immediately after the training. A retention test was given 24 hours later. The test procedures proceeded in a manner similar to the training one, and time to entry into the dark compartment was measured for 300 seconds.

A further test relates to Male ICR mice. Kind of test: Anti-depression effect (forced swimming, revolutions of water wheel). The format is in vivo, mouse (male ICR). The following applies: 50 mg/kg, intraperitoneal. From the text:
Male ICR mice weighing 25-30 g were used in groups each consisting of 6 or 7 animals. […] First, the mouse was subjected to force swimming for two days on a 15-minutes-a-day basis; starting on the third day, the mouse that had received intraperitoneal injection of a test compound one hour before was subjected to forced swimming for 3 days on a 15-minutes-a-day basis.

The test system of test [2] is rabbit platelet rich plasma. Kind of test: Effect on in vitro platelet aggregation. The format is cell-based, rabbit (male Japanese white). The following applies: Oryctolagus cuniculus, aggregator AA, read-out: Anti-platelet aggregation IC50, AA.
Another test deals with vertebral artery. As to the kind of experiment: Effect on blood flow in the vertebral artery, blood pressure and heart rate in anesthetized dogs. The format is in vivo, dog (mongrel). The following applies: femoral vein. On the procedure: 4. Effect on blood flow in the vertebral artery, blood pressure and heart rate in anesthetized dogs
Mongrel dogs of either sex, weighing 6.8-9.4 kg, were used. The animals were anesthetized with an intravenous injection, at first, of 30 mg/kg of sodium thiopental and thereafter, of a combination of urethane 400 mg/kg and α-chloralose 60 mg/kg. Under artificial ventilation (20 ml/kg/stroke, 20 strokes/min), blood flow in the vertebral artery and blood pressure were measured with the aid of an extracorporeal electromagnetic flow probe placed on the artery and a pressure transducer, respectively. Vertebral vascular resistance was recorded with an electronic divider and heart rate was measured with a heart rate counter triggered by blood pressure pulses. All of these parameters were recorded on a polygraph continuously. When these parameters became stable, test compounds were injected into the femoral vein.

Test [3] deals with rabbit platelet rich plasma. As to the kind of experiment: Effect on in vitro platelet aggregation. The format is cell-based, rabbit (male Japanese white). To be noted: for IC50: Oryctolagus cuniculus, Platelet. The procedure:
5. Effect on in vitro platelet aggregation Arterial blood was drawn from the ear artery of male Japanese white rabbits. Platelet rich plasma (PRP) was prepared by centrifugation of 9 ml of blood mixed with 1 ml of 3.8% sodium citrate as anticoagulant. Platelet aggregation was measured optically according to Born's method. ADP (10 μM), collagen (37.5 μg/ml), platelet activating factor (PAF, 0.11 nM) and calcium ionophore A 23187 (1 μg/ml) were used as platelet aggregators. Test compounds were added 1 minute prior to the addition of aggregating agents.

The subject of test [4] is Male ddY mice. Kind of test: Anti-hypoxia effect (brain protection in low-oxygen state after evacuation): survival time. The format is in vivo, mouse (male ddY). To be noted: intraperitoneal, 180 mmHg. On the procedure:
2. Anti-hypoxia effect (i.e., […] protection in low-oxygen state after evacuation)
Male ddY m8mice weighing 22-30 g were used in groups each consisting of 7-10 animals. The mice were placed in a desiccator (capacity: ca. 1,000 ml) which was evacuated with a vacuum pump to an internal pressure of 180 mmHg after intraperitoneal administration of test compounds. The survival time, or the duration of time between the start of evacuation and the cessation of breathing, was measured, and this was compared with the value for a vehicle group. Any survival time longer than a period of 15 minutes after application of a hypoxia load was counted as 15 minutes.

The subject of test [5] is scopolamine amnesia mouse. Kind of test: Anti-amnesia effect (scopolamine-induced retrograde amnesia), step-through passive avoidance. The format is in vivo, mouse (male ddY). The following applies: ip, 24 h, significant prolongation of step-through latency, intraperitoneal, scopolamine 0.5 mg/kg s.c., read-out: Minimum effective amount. The procedure:
6a. Anti-amnesia effect (i.e., capability of preventing scopolamine-inducedretrograde amnesia)
Five-week old male ddY weighing 25-30 g were used in groups each consisting of 10 animals. Memory retention deficit induced by scopolamine was evaluated by two-compartment step-through passive avoidance task. […] The floor of the dark compartment was provided with a current-conducting grid.
The experimental method was as follows. A scopolamine amnesia mouse that had been given subcutaneous injection of 0.5 mg/kg of an aqueous solution of scopolamine borate 20 minutes before was placed in the light compartment and when its forefeet touched the grid floor of the dark compartment, a current of 0.6 mA was applied to give a foot shock to the mouse (acquired conation). Immediately thereafter, a selected test compound or a control (physiological saline solution) was administered intraperitoneally. Twenty-four hours later, the mouse was replaced in the light compartment and the step-through latency, or the time required for the mouse to move to the dark compartment, was measured for a period of up to 300 seconds (test conation). The minimum effective amount of the test compound that provided a significant prolongation of the step-through latency over the control was determined.

In test [6] the test system is Male ddY mice. Kind of test: Anti-cerebroischemic effect (brain protection after ischemia by decapitation): gasping time. The format is in vivo, mouse (male ddY). The following applies: intraperitoneal, 30 min before decapitation. The procedure: 1. Anti-cerebroischemic effect (i.e., brain protection after ischemia by decapitation)
Male ddY mice weighing 22-30 g were used in groups each consisting of 6 animals. Test compounds were administered intraperitoneally to the mice which were decapitated 30 minutes after the administration. The gasping time, or the duration of time between the onset of panting after decapitation and its cessation, was measured, and this was compared with the gasping time for a control group which were given only a liquid vehicle.

Test [7] concerns cycloheximide-induced amnesia in mice. Kind of test: Effect on cycloheximide-induced amnesia in mice, step-through passive avoidance. The format is in vivo, mouse (male ddY). To be noted: 6.25 and 50 mg/kg, intraperitoneal, immediately after training; cycloheximide 40 mg/kg s.c. On the procedure: as §1, §2

By IC50 is commonly meant the concentration at which inhibition is half-maximal. For `CN(C)CCCON=C1c2ccccc2OC2(c3ccccc3)CC12` (stereo not drawn) [Example 2, 3,4-Benzo-5-(3-dimethylaminopropyl)oxyimino-1-phenyl-2-oxabicyclo[4.1.0]heptane], the “prevention of ECS-induced shortening of step-through latency” value in test [1] is “significantly prevented the ECS-induced shortening of step-through latency”. For the same compound, the “anti-depression effect” value in the test with Male ICR mice is on record as “anti-depression effect”. In the test with Male ICR mice (one hour before forced swimming), the “rotation of the water wheel relative to control group” value was determined as 1.8 times. Also, the IC50 in test [2] stood at 54 µg/mL (≈ 161 µM); in test [3] (aggregator ADP (10 μM), read-out: Anti-platelet aggregation IC50, ADP) it was 34.5 µg/mL (≈ 103 µM); in test [3] (aggregator PAF (0.11 nM), read-out: Anti-platelet aggregation IC50, PAF) it was 20 µg/mL (≈ 59.4 µM); in [3] (aggregator calcium ionophore A 23187 (1 μg/ml), read-out: Anti-platelet aggregation IC50, A 23187) it was 69 µg/mL (≈ 205 µM); in test [3] (aggregator collagen (37.5 μg/ml), read-out: Anti-platelet aggregation IC50, Collagen) it was 4.1 µg/mL (≈ 12.2 µM). In addition, the blood pressure result is recorded as “small decrease” with vertebral artery (3.0 mg/kg); “almost no change” in the test with vertebral artery (0.3 and 1.0 mg/kg). Further, the heart rate entry in the test with vertebral artery (3.0 mg/kg) is “increase”; in the test on vertebral artery (0.3 and 1.0 mg/kg) it was “almost no change”. The vertebral vascular resistance entry is “further decrease” with vertebral artery (3.0 mg/kg); “dose-dependent decreases” with vertebral artery (0.3 and 1.0 mg/kg). Also, the “platelet aggregation” value in test [3] (all the aggregators used, listed as Compound No. 2) is “decreases in platelet aggregation induced by all the aggregators used; also recorded: nonspecific inhibitory actions on in vitro platelet aggregation”. Further, the “prolongation of survival time” value in the test on Male ddY mice [4] (6.25 mg/kg or smaller) is on record as “significant prolongation of the survival time”; in the test with Male ddY mice [4] (12.5 mg/kg), “significantly prolonging the survival time”. Further, the minimal effective dose in test [5] was 3.2 mg/kg. The “prolongation of gasping time” value is recorded as “significant prolongation of the gasping time” with Male ddY mice [6] (12.5 mg/kg) and “significantly prolonging the gasping time” in the test on Male ddY mice [6] (25 mg/kg). The “prolongation of step-through latency shortened by cycloheximide” value in [7] was “significantly prolonged the step-through latency”.
